Reference: ChEMBL document CHEMBL2074143, “Up-regulation of organic anion transporter 1 protein is induced by chronic furosemide or hydrochlorothiazide infusion in rat kidney” (Nephrol Dial Transplant, 2003)

Assays:
[1] = target: T1, Solute carrier family 22 member 6 (Rattus norvegicus, UniProt O35956); experiment: TP_TRANSPORTER: quantitative PCR in vivo, SD rat, kidney; type: functional, organism-based, Sprague-Dawley
T1 sequence (O35956 whole entry): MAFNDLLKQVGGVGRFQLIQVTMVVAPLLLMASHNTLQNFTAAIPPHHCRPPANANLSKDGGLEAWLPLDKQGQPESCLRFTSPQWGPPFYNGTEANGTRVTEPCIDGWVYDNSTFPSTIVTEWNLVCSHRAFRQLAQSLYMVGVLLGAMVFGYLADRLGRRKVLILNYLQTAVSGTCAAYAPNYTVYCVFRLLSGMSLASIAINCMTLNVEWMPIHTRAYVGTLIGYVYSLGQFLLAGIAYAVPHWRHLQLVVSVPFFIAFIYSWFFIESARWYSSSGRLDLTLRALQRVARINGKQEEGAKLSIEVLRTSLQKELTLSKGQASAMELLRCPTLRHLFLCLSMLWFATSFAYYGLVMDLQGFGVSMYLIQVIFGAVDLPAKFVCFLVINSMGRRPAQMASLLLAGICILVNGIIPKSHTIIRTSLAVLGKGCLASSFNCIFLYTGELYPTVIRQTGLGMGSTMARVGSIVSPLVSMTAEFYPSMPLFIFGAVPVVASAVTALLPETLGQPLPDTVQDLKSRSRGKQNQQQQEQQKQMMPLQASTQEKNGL

[2] = target: T1, Solute carrier family 22 member 6; experiment: TP_TRANSPORTER: Western in vivo, SD rat, kidney; type: functional, organism-based, Sprague-Dawley

SMILES: NS(=O)(=O)c1cc(C(=O)O)c(NCc2ccco2)cc1Cl [FUROSEMIDE]
- Activity [1]: inducer []
- Activity [2]: inducer []
